Measured values published in patent US20250101041A1, “POSITIVE ALLOSTERIC MODULATORS OF THE MUSCARINIC ACETYLCHOLINE RECEPTOR M4” (Vanderbilt University, priority 2022, published 2025).

Target: T1, human mAChR M4 (Homo sapiens, UniProt P08173)
T1 construct: expressed in transfected cells; host or cells: CHO-K1 (American Type Culture Collection), stably expressing hM4 and Gqi5
T1 sequence (P08173 1-479): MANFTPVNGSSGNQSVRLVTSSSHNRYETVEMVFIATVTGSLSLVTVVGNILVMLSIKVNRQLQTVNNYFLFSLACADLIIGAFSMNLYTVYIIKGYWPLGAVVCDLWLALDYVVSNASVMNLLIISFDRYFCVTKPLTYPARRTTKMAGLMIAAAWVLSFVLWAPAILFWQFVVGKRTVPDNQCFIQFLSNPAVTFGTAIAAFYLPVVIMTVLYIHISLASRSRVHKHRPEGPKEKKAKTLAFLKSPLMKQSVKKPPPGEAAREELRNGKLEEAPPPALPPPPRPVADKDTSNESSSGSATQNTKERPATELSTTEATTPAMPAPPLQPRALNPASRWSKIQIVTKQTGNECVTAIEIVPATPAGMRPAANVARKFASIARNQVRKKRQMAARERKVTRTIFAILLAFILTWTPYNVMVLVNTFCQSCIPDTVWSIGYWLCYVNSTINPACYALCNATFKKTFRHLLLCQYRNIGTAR
Test: mAChR M4 cell-based functional assay: calcium mobilization (Fluo-4, FDSS), potentiation of EC20 acetylcholine response in hM4-Gqi5 CHO-K1 cells
Details: human M4; for Emax at 30 µM: CHO-K1, % ACh maximum at 30 μM; for EC50: potentiation of EC20 acetylcholine response, calcium mobilization
Procedure, shortened: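 Readout is the fluorescence-ratio rise at 1 Hz on FDSS, with PAM activity taken as concentration-dependent enhancement of the EC20 acetylcholine response, fitted four-parameter for EC50/Emax. hM4-Gqi5 CHO-K1 cells carried Fluo-4 AM dye; test compounds (11 points, 1:3) preceded EC20 acetylcholine additions at 144 s and 230 s.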

| Emax at 30 µM [%] | EC50 [nM] | Compound |
| --- | --- | --- |
| 102 | 91 | Cc1c(N2CCc3ncc(C(F)(F)F)cc3C2)nn2c(=O)ccnc2c1C [Compound 1-64, 8,9-dimethyl-7-(3-(trifluoromethyl)-7,8-dihydro-1,6-naphthyridin-6(5H)-yl)-4H-pyrimido[1,2-b]pyridazin-4-one] |
| 85 | 338 | Cc1cc(=O)n2nc(N3CCc4ncc(-c5cnn(C(F)F)c5)cc4C3)c(C)cc2n1 [Compound 1-215, 7-(3-(1-(difluoromethyl)-1H-pyrazol-4-yl)-7,8-dihydro-1,6-naphthyridin-6(5H)-yl)-2,8-dimethyl-4H-pyrimido[1,2-b]pyridazin-4-one] |
| 102 | 445 | COc1cncc(-c2cnc3c(c2)CN(c2nn4c(=O)cc(C(F)(F)F)nc4cc2C)CC3)c1 [Compound 1-74, 7-(3-(5-methoxypyridin-3-yl)-7,8-dihydro-1,6-naphthyridin-6(5H)-yl)-8-methyl-2-(trifluoromethyl)-4H-pyrimido[1,2-b]pyridazin-4-one] |
| 88 | 1320 | Cc1cc2nccc(=O)n2nc1N1CCc2ncc(Nc3cc(C(F)(F)F)ncc3F)cc2C1 [Compound 2-152, 7-(3-((5-fluoro-2-(trifluoromethyl)pyridin-4-yl)amino)-7,8-dihydro-1,6-naphthyridin-6(5H)-yl)-8-methyl-4H-pyrimido[1,2-b]pyridazin-4-one] |
| 94 | 158 | Cc1ccc(-c2cnc3c(c2)CN(c2nn4c(=O)cc(C(C)C)nc4c(C)c2C)CC3)cn1 [Compound 1-108, 2-isopropyl-8,9-dimethyl-7-(3-(6-methylpyridin-3-yl)-7,8-dihydro-1,6-naphthyridin-6(5H)-yl)-4H-pyrimido[1,2-b]pyridazin-4-one] |
| 91 | 62 | Cc1c(N2CCc3ncc(-c4cccnc4)cc3C2)nn2c(=O)cc(C(F)F)nc2c1C [Compound 1-155, 2-(difluoromethyl)-8,9-dimethyl-7-(3-(pyridin-3-yl)-7,8-dihydro-1,6-naphthyridin-6(5H)-yl)-4H-pyrimido[1,2-b]pyridazin-4-one] |
| 74 | 268 | Cc1cc2nccc(=O)n2nc1N1CCc2ncc(N3CCOC(c4ccccc4F)C3)cc2C1 (centres unmarked) [Compound 2-59, 7-(3-(2-(2-fluorophenyl)morpholino)-7,8-dihydro-1,6-naphthyridin-6(5H)-yl)-8-methyl-4H-pyrimido[1,2-b]pyridazin-4-one] |
| 69 | 549 | Cc1cc2nccc(=O)n2nc1N1CCc2ncc(Nc3cccc4c3OCCO4)cc2C1 [Compound 2-72, 7-(3-((2,3-dihydrobenzo[b][1,4]dioxin-5-yl)amino)-7,8-dihydro-1,6-naphthyridin-6(5H)-yl)-8-methyl-4H-pyrimido[1,2-b]pyridazin-4-one] |
| 84 | 287 | Cc1cc(=O)n2nc(N3CCc4ncc(-c5cc(F)ccc5C)cc4C3)c(C)cc2n1 [Compound 1-210, 7-(3-(5-fluoro-2-methylphenyl)-7,8-dihydro-1,6-naphthyridin-6(5H)-yl)-2,8-dimethyl-4H-pyrimido[1,2-b]pyridazin-4-one] |
| 31 | – | Cc1nc(S(=O)(=O)Nc2cnc3c(c2)CN(c2nn4c(=O)ccnc4cc2C)CC3)cs1 [Compound 2-119, 2-methyl-N-(6-(8-methyl-4-oxo-4H-pyrimido[1,2-b]pyridazin-7-yl)-5,6,7,8-tetrahydro-1,6-naphthyridin-3-yl)thiazole-4-sulfonamide] |
| 77 | – | Cc1c(N2CCc3ncc(P(C)(C)=O)cc3C2)nn2c(=O)ccnc2c1C [Compound 3-5, 7-(3-(Dimethylphosphoryl)-7,8-dihydro-1,6-naphthyridin-6(5H)-yl)-8,9-dimethyl-4H-pyrimido[1,2-b]pyridazin-4-one] |
| 64 | 1910 | COc1cccc(C2CN(c3cnc4c(c3)CN(c3nn5c(=O)ccnc5cc3C)CC4)CCO2)c1 (centres unmarked) [Compound 2-84, 7-(3-(2-(3-methoxyphenyl)morpholino)-7,8-dihydro-1,6-naphthyridin-6(5H)-yl)-8-methyl-4H-pyrimido[1,2-b]pyridazin-4-one] |
| 67 | 363 | Cc1cc(=O)n2nc(N3CCc4ncc(-c5cc(F)ncc5F)cc4C3)c(C)cc2n1 [Compound 1-258, 7-(3-(2,5-difluoropyridin-4-yl)-7,8-dihydro-1,6-naphthyridin-6(5H)-yl)-2,8-dimethyl-4H-pyrimido[1,2-b]pyridazin-4-one] |
| 96 | 92 | Cc1cc2nccc(=O)n2nc1N1CCc2ncc(Nc3ccncc3)cc2C1 [Compound 2-97, 8-methyl-7-(3-(pyridin-4-ylamino)-7,8-dihydro-1,6-naphthyridin-6(5H)-yl)-4H-pyrimido[1,2-b]pyridazin-4-one] |
| 89 | 858 | Cc1cc(=O)n2nc(N3CCc4ncc(-c5cncc(Cl)c5)cc4C3)c(C)c(C)c2n1 [Compound 1-123, 7-(3-(5-chloropyridin-3-yl)-7,8-dihydro-1,6-naphthyridin-6(5H)-yl)-2,8,9-trimethyl-4H-pyrimido[1,2-b]pyridazin-4-one] |
| 94 | 70 | Cc1cc(=O)n2nc(N3CCc4ncc(N5CCCn6nccc65)cc4C3)c(C)cc2n1 [Compound 2-10, 7-(3-(6,7-dihydropyrazolo[1,5-a]pyrimidin-4(5H)-yl)-7,8-dihydro-1,6-naphthyridin-6(5H)-yl)-2,8-dimethyl-4H-pyrimido[1,2-b]pyridazin-4-one] |
| 78 | 313 | Cc1c(N2CCc3ncc(-c4cnn(CCN(C)C)c4)cc3C2)nn2c(=O)cc(C(F)F)nc2c1C [Compound 1-308, 2-(difluoromethyl)-7-(3-(1-(2-(dimethylamino)ethyl)-1H-pyrazol-4-yl)-7,8-dihydro-1,6-naphthyridin-6(5H)-yl)-8,9-dimethyl-4H-pyrimido[1,2-b]pyridazin-4-one] |
| 60 | 597 | Cc1cc2nccc(=O)n2nc1N1CCc2ncc(-c3ccnn3C(C)C)cc2C1 [Compound 1-396, 7-(3-(1-isopropyl-1H-pyrazol-5-yl)-7,8-dihydro-1,6-naphthyridin-6(5H)-yl)-8-methyl-4H-pyrimido[1,2-b]pyridazin-4-one] |
| 76 | 1300 | Cc1cc(=O)n2nc(N3CCc4ncc(N5C[C@@H](C)O[C@@H](C)C5)cc4C3)c(C)c(C)c2n1 [Compound 2-38, 7-(3-((2R,6S)-2,6-dimethylmorpholino)-7,8-dihydro-1,6-naphthyridin-6(5H)-yl)-2,8,9-trimethyl-4H-pyrimido[1,2-b]pyridazin-4-one] |
| 103 | 127 | Cc1ccc(-c2cnc3c(c2)CN(c2nn4c(=O)cc(C(F)F)nc4c(C)c2C)CC3)cn1 [Compound 1-85, 2-(difluoromethyl)-8,9-dimethyl-7-(3-(6-methylpyridin-3-yl)-7,8-dihydro-1,6-naphthyridin-6(5H)-yl)-4H-pyrimido[1,2-b]pyridazin-4-one] |
| 68 | 1750 | Cc1c(N2CCc3ncc(N4CC(C)(C)CC4=O)cc3C2)nn2c(=O)ccnc2c1C [Compound 2-145, 7-(3-(4,4-dimethyl-2-oxopyrrolidin-1-yl)-7,8-dihydro-1,6-naphthyridin-6(5H)-yl)-8,9-dimethyl-4H-pyrimido[1,2-b]pyridazin-4-one] |
| 82 | 443 | Cc1cc(=O)n2nc(N3CCc4ncc(-c5ccc(F)c(F)c5)cc4C3)c(C)cc2n1 [Compound 1-213, 7-(3-(3,4-difluorophenyl)-7,8-dihydro-1,6-naphthyridin-6(5H)-yl)-2,8-dimethyl-4H-pyrimido[1,2-b]pyridazin-4-one] |
| 95 | 25 | Cc1cc2nccc(=O)n2nc1N1CCc2ncc(Nc3ccccc3Cl)cc2C1 [Compound 2-67, 7-(3-((2-chlorophenyl)amino)-7,8-dihydro-1,6-naphthyridin-6(5H)-yl)-8-methyl-4H-pyrimido[1,2-b]pyridazin-4-one] |
| 90 | 48 | COCc1cc(=O)n2nc(N3CCc4ncc(-c5cnc(F)cc5C)cc4C3)c(C)c(C)c2n1 [Compound 1-229, 7-(3-(6-fluoro-4-methylpyridin-3-yl)-7,8-dihydro-1,6-naphthyridin-6(5H)-yl)-2-(methoxymethyl)-8,9-dimethyl-4H-pyrimido[1,2-b]pyridazin-4-one] |
| 48 | 503 | Cc1c(N2CCc3ncc(-c4ccccc4C(C)C)cc3C2)nn2c(=O)ccnc2c1C [Compound 1-340, 7-(3-(2-isopropylphenyl)-7,8-dihydro-1,6-naphthyridin-6(5H)-yl)-8,9-dimethyl-4H-pyrimido[1,2-b]pyridazin-4-one] |
| 86 | 411 | Cc1cc2nccc(=O)n2nc1N1CCc2ncc(-c3cccc(C)c3C)cc2C1 [Compound 1-442, 7-(3-(2,3-dimethylphenyl)-7,8-dihydro-1,6-naphthyridin-6(5H)-yl)-8-methyl-4H-pyrimido [1,2-b]pyridazin-4-one] |
